Measured values from ChEMBL document CHEMBL5329217, “Hesperidin Methyl Chalcone reduces extracellular Aβ(25-35) peptide aggregation and fibrillation and also protects Neuro 2a cells from Aβ(25-35) induced neuronal dysfunction” (Bioorg Med Chem, 2023).
Values after ≈ are worked out from the molar mass of the structure shown. Active and inactive are the calls of the source. No cut-off for these calls is given here.

Experiments:
[1] = tested on: N2a; assay: (§1) Inhibition of Amyloid beta (25 to 35)-induced macromolecular damage in mouse Neuro2a cells assessed as reduction in lipid peroxidation by measuring MDA content at 50 ug/ml pretreated for 2 hrs followed by amyloid beta (25 to 35) addition and measured after 24 hrs per mg protein (reference value: 106.4 +/-1.9 nmol); format: functional; conditions: dose 50 µg/ml; time 26 hrs
[2] = tested on: N2a; assay: Inhibition of Amyloid beta (25 to 35)-induced mitochondrial membrane potential loss in mouse Neuro2a cells at 50 ug/ml pretreated for 2 hrs followed by amyloid beta (25 to 35) addition and measured after 24 hrs by rhodamine 123 staining based fluorescent spectrophotometry; format: functional, cell-based; conditions: dose 50.0 µg/ml, time 26.0 hrs
[3] = tested on: N2a; assay: (§2) Inhibition of Amyloid beta (25 to 35)-induced oxidative damage in mouse Neuro2a cells assessed as reduction in ROS production by measuring reduction in fluorescence intensity at 50 ug/ml pretreated for 2 hrs followed by amyloid beta (25 to 35) addition and measured after 24 hrs by DCFH-DA staining -based spectrofluorimetric assay; format: functional, cell-based; conditions: dose 50.0 µg/ml, time 26.0 hrs
[4] = tested on: N2a; assay: (§3) Neuroprotective activity against Amyloid beta (25 to 35)-induced toxicity in mouse Neuro2a cells assessed as non-apoptotic viable cells at 50 ug/ml pretreated for 2 hrs followed by amyloid beta (25 to 35) addition and measured after 24 hrs by AO/EtBr dual staining based fluorescence microscopy (reference value: 53.4 +/-3.88%); format: functional; conditions: dose 50 µg/ml; time 26 hrs
[5] = tested on: N2a; assay: Inhibition of Amyloid beta (25 to 35)-induced apoptosis in mouse Neuro2a cells assessed as Bax/Bcl2 ratio at 50 ug/ml pretreated for 2 hrs followed by amyloid beta (25 to 35) addition and measured after 24 hrs by Western blot analysis (reference value: 1.09 +/- 0.018); format: functional; conditions: dose 50 µg/ml; time 26 hrs
[6] = tested on: N2a; assay: as §1, with “protein oxidation” for “lipid peroxidation”, “protein carbonyl” for “MDA”, “44.06 +/- 1.02 […])” for “106.4 +/-1.9 nmol)”; format: functional; conditions: dose 50 µg/ml; time 26 hrs
[7] = tested on: N2a; assay: (§4) Inhibition of Amyloid beta (25 to 35)-induced apoptosis in mouse Neuro2a cells assessed as reduction in caspase-3 activity by measuring PNA level at 50 ug/ml pretreated for 2 hrs followed by amyloid beta (25 to 35) addition and measured after 24 hrs per mg protein (reference value: 0.12 +/-0.004 mM/min); format: functional; conditions: dose 50 µg/ml; time 26 hrs
[8] = target: Acetylcholinesterase (Electrophorus electricus) (UniProt O42275); assay: Inhibition of electric eel AchE using acetylthiocholine iodide as substrate at 100 ug/ml by Ellman's method relative to control; conditions: dose 100.0 µg/ml
Sequence of Acetylcholinesterase (Electrophorus electricus) (O42275 24-633 limits assumed): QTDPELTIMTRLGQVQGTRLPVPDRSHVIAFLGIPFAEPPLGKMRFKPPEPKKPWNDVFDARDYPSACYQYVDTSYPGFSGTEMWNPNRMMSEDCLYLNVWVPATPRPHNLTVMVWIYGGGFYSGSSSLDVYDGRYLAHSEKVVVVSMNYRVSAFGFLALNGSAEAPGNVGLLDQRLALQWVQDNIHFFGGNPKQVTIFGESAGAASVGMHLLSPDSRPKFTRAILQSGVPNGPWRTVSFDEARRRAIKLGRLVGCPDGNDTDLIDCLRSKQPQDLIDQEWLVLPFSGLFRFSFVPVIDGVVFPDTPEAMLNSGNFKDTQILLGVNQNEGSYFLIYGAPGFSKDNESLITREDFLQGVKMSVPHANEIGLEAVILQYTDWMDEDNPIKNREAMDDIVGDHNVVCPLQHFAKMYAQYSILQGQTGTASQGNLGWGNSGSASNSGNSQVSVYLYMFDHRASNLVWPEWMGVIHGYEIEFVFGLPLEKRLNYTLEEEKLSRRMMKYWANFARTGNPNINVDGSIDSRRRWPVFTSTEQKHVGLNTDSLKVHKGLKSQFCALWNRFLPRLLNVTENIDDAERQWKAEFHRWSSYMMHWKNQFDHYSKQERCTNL

[9] = tested on: Artemia salina; assay: Toxicity in Artemia salina assessed as induction of morphological changes by measuring variation in the mandibles at 5 to 100 ug/ml treated for 24 hrs by phase contrast light microscopy; format: organism-based; conditions: in vivo, dose 5-100 µg/ml
[10] = tested on: N2a; assay: Inhibition of Amyloid beta (25 to 35)-induced apoptosis in mouse Neuro2a cells assessed as increase in BCl2 expression at 50 ug/ml pretreated for 2 hrs followed by amyloid beta (25 to 35) addition and measured after 24 hrs by Western blot analysis; format: functional, cell-based; conditions: dose 50.0 µg/ml, time 26.0 hrs
[11] = target: Amyloid-beta precursor protein (Homo sapiens) (UniProt P05067); assay: Inhibition of amyloid beta (25 to 35) (unknown origin) aggregation assessed as fluorescence intensity at 50 ug/ml incubated for 48 hrs by ThT-based fluorescence analysis (reference value: 26.85 +/-0.78 AU); conditions: dose 50.0 µg/ml
Sequence of Amyloid-beta precursor protein (Homo sapiens) (P05067 whole entry): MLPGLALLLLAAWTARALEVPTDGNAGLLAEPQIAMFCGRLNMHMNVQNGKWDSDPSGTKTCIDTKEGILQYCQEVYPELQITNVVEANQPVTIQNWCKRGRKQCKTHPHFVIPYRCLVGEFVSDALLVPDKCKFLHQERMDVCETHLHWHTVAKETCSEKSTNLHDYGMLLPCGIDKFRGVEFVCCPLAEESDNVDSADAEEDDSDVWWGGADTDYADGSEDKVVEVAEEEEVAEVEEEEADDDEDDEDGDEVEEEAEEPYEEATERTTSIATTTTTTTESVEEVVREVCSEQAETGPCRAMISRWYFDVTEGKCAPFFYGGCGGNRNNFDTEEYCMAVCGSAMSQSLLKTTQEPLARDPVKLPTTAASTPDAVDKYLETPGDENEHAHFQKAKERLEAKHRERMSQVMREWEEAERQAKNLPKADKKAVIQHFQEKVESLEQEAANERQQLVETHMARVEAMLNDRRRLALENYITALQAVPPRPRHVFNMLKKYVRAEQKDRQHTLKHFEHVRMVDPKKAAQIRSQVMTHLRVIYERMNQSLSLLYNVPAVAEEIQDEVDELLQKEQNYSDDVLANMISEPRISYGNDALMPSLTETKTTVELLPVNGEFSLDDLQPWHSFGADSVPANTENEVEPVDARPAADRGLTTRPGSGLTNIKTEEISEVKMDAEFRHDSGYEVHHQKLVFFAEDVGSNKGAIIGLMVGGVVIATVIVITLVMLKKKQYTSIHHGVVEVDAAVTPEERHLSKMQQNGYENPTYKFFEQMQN

[12] = Toxicity in Artemia salina assessed as mortality rate at 5 ug/ml measured after 24 hrs relative to control; format: organism-based; conditions: in vivo, at 5 µg/mL
[13] = tested on: Artemia salina; assay: Toxicity in Artemia salina assessed as induction of morphological changes by measuring improper antennae swimming setae at 5 to 100 ug/ml treated for 24 hrs by phase contrast light microscopy; format: organism-based; conditions: in vivo, dose 5-100 µg/ml
[14] = tested on: N2a; assay: as §3, with “25” for “50”; format: functional; conditions: dose 25 µg/ml; time 26 hrs
[15] = tested on: Artemia salina; assay: Toxicity in Artemia salina assessed as decrease in total length of the shrimp at 5 to 100 ug/ml measured after 24 hrs by phase contrast light microscopy; format: organism-based; conditions: in vivo, dose 5-100 µg/ml
[16] = Toxicity in Artemia salina assessed as mortality rate at 100 ug/ml measured after 24 hrs relative to control; format: organism-based; conditions: in vivo, at 100 µg/mL
[17] = target: Cholinesterase (Mus musculus) (UniProt Q03311); assay: Inhibition of Amyloid beta (25 to 35)-induced BuChE activity in mouse Neuro2a cells assessed as BuChE activity at 25 ug/ml pretreated for 2 hrs followed by amyloid beta (25 to 35) addition and measured after 24 hrs per mg protein (reference value: 0.0007 +/-3.64 U); format: cell-based; conditions: dose 25.0 µg/ml, time 26.0 hrs
Sequence of Cholinesterase (Mus musculus) (Q03311 whole entry): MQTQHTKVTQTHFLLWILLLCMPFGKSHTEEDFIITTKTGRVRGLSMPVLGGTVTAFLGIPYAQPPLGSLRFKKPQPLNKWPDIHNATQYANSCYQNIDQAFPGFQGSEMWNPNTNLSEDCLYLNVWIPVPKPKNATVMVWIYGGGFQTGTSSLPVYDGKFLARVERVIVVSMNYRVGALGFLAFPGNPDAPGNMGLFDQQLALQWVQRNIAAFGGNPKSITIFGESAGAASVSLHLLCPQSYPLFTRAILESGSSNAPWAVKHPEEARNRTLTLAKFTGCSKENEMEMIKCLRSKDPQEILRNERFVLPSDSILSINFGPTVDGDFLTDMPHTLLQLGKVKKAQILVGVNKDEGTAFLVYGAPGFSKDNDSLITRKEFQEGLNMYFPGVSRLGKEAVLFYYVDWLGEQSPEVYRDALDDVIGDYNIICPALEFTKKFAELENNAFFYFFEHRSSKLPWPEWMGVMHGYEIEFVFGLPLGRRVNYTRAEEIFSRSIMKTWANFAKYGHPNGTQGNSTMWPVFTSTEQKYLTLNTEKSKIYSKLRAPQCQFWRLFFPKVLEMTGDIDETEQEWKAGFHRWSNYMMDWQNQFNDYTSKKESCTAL

[18] = tested on: N2a; assay: Inhibition of Amyloid beta (25 to 35)-induced mitochondrial membrane potential loss in mouse Neuro2a cells at 25 to 50 ug/ml pretreated for 2 hrs followed by amyloid beta (25 to 35) addition and measured after 24 hrs by rhodamine 123 staining based fluorescent spectrophotometry; format: functional, cell-based; conditions: dose 25-50 µg/ml, time 26.0 hrs
[19] = target: T1, Acetylcholinesterase (Mus musculus) (UniProt P21836); assay: Inhibition of Amyloid beta (25 to 35)-induced AChE activity in mouse Neuro2a cells assessed as AChE activity at 25 ug/ml pretreated for 2 hrs followed by amyloid beta (25 to 35) addition and measured after 24 hrs per mg protein (reference value: 0.0012 +/-4.18 U); format: cell-based; conditions: dose 25.0 µg/ml, time 26.0 hrs
T1 sequence (whole entry): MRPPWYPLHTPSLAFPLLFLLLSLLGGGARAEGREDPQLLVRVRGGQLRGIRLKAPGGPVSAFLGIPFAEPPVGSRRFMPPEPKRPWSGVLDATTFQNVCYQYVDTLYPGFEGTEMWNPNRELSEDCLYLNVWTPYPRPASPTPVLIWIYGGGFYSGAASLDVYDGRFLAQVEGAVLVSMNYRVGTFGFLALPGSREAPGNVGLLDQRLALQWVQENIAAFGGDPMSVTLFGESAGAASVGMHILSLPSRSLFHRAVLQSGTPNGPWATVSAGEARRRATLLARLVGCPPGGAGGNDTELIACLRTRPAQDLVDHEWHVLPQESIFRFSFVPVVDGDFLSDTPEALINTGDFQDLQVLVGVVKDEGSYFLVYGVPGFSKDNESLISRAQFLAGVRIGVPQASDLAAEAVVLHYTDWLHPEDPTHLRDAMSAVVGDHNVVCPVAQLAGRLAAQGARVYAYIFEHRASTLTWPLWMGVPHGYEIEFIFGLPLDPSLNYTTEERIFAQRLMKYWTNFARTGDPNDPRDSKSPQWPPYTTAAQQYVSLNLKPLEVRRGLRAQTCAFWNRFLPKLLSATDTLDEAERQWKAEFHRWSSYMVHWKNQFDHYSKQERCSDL

[20] = target: Amyloid-beta precursor protein (Homo sapiens) (UniProt P05067); assay: Inhibition of amyloid beta (25 to 35) (unknown origin) aggregation assessed as fluorescence intensity at 50 ug/ml incubated for 24 hrs by ThT-based fluorescence analysis (reference value: 22.15 +/-1.41 AU); conditions: dose 50.0 µg/ml
[21] = tested on: Artemia salina; assay: Toxicity in Artemia salina assessed as induction of morphological changes by measuring improper development at 5 to 100 ug/ml treated for 24 hrs by phase contrast light microscopy; format: organism-based; conditions: in vivo, dose 5-100 µg/ml
[22] = Toxicity in Artemia salina assessed as lethal dose; format: organism-based; conditions: in vivo
[23] = target: Acetylcholinesterase (Electrophorus electricus) (UniProt O42275); assay: Inhibition of electric eel AchE using acetylthiocholine iodide as substrate at 20 to 100 ug/ml by Ellman's method relative to control; conditions: dose 20-100 µg/ml
[24] = Toxicity in Artemia salina assessed as mortality rate at 75 ug/ml measured after 24 hrs relative to control; format: organism-based; conditions: in vivo, at 75 µg/mL
[25] = tested on: N2a; assay: Cytotoxicity against mouse Neuro2a cells upto 200 ug/ml incubated for 24 hrs by MTT assay; format: toxicity, cell-based; conditions: dose < 200 µg/ml
[26] = target: Amyloid-beta precursor protein (Homo sapiens) (UniProt P05067); assay: Inhibition of amyloid beta (25 to 35) (unknown origin) aggregation assessed as fluorescence intensity at 50 ug/ml incubated for 9 days by ThT-based fluorescence microscopic analysis (reference value: 36.84 +/-0.94 AU); conditions: dose 50.0 µg/ml, time 9.0 day
[27] = tested on: N2a; assay: as §4, with “25” for “50”; format: functional; conditions: dose 25 µg/ml; time 26 hrs
[28] = Cytotoxicity against mouse Neuro2a cells assessed as cell viability at 100 ug/ml incubated for 24 hrs by MTT assay; format: toxicity, cell-based; conditions: Neuro2a (N2a) cells, at 100 µg/mL, read-out: Activity
[29] = target: T1, Acetylcholinesterase (Mus musculus); assay: Inhibition of Amyloid beta (25 to 35)-induced AChE activity in mouse Neuro2a cells assessed as AChE activity at 50 ug/ml pretreated for 2 hrs followed by amyloid beta (25 to 35) addition and measured after 24 hrs per mg protein (reference value: 0.0012 +/-4.18 U); format: cell-based; conditions: dose 50.0 µg/ml, time 26.0 hrs
[30] = tested on: N2a; assay: as §2, with “intensity at 25 to 50 ug/ml” for “intensity at 50 ug/ml”; format: functional, cell-based; conditions: dose 25-50 µg/ml, time 26.0 hrs
[31] = target: Cholinesterase (Mus musculus) (UniProt Q03311); assay: Inhibition of Amyloid beta (25 to 35)-induced BuChE activity in mouse Neuro2a cells assessed as BuChE activity at 50 ug/ml pretreated for 2 hrs followed by amyloid beta (25 to 35) addition and measured after 24 hrs per mg protein (reference value: 0.0007 +/-3.64 U); format: cell-based; conditions: dose 50.0 µg/ml, time 26.0 hrs
[32] = Antioxidant activity assessed as free radical scavenging activity at 100 ug/ml by DPPH assay relative to control; format: functional; conditions: dose 100.0 µg/ml
[33] = Toxicity in Artemia salina assessed as mortality rate at 25 ug/ml measured after 24 hrs relative to control; format: organism-based; conditions: in vivo, at 25 µg/mL
[34] = tested on: N2a; assay: as §1, with “protein oxidation” for “lipid peroxidation”, “protein carbonyl” for “MDA”, “25” for “50”, “44.06 +/- 1.02” for “106.4 +/-1.9”; format: functional; conditions: dose 25 µg/ml; time 26 hrs
[35] = tested on: N2a; assay: Inhibition of Amyloid beta (25 to 35)-induced apoptosis in mouse Neuro2a cells assessed as decrease in Bax expression at 50 ug/ml pretreated for 2 hrs followed by amyloid beta (25 to 35) addition and measured after 24 hrs by Western blot analysis; format: functional, cell-based; conditions: dose 50.0 µg/ml, time 26.0 hrs
[36] = target: Amyloid-beta precursor protein (Homo sapiens) (UniProt P05067); assay: Disaggregation of amyloid beta (25 to 35) (unknown origin) mature fibrils at 50 ug/ml incubated for 1 to 9 days by ThT-based fluorescence microscopic analysis; conditions: dose 50.0 µg/ml, time 1-9 day
[37] = tested on: N2a; assay: Neuroprotective activity against Amyloid beta (25 to 35)-induced toxicity in mouse Neuro2a cells assessed as reduction in cell viability loss at 25 to 100 ug/ml pretreated for 2 hrs followed by amyloid beta (25 to 35) addition and measured after 24 hrs by MTT assay; format: functional, cell-based; conditions: dose 25-100 µg/ml, time 26.0 hrs
[38] = tested on: N2a; assay: as §1, with “25” for “50”; format: functional; conditions: dose 25 µg/ml; time 26 hrs
[39] = Toxicity in Artemia salina assessed as mortality rate at 50 ug/ml measured after 24 hrs relative to control; format: organism-based; conditions: in vivo, at 50 µg/mL
[40] = target: Amyloid-beta precursor protein (Homo sapiens) (UniProt P05067); assay: Inhibition of amyloid beta (25 to 35) (unknown origin) aggregation assessed as fluorescence intensity at 50 ug/ml incubated for 96 hrs by ThT-based fluorescence analysis (reference value: 31.63 +/-0.68 AU); conditions: dose 50.0 µg/ml

## COc1cc2c(cc1OC)C(=O)C(CC1CCN(Cc3ccccc3)CC1)C2 (centres undefined) [DONEPEZIL]
[1]
  Activity: 56.6 nmol
[2]
  inhibition: Active
[3]
  inhibition: Active
[4]
  Activity: 79%
[5]
  Ratio: 0.57
[6]
  Activity: 25.1 nmol/mg

## COc1ccc(/C=C/C(=O)c2c(O)cc(O[C@@H]3O[C@H](CO[C@@H]4O[C@@H](C)[C@H](O)[C@@H](O)[C@H]4O)[C@@H](O)[C@H](O)[C@H]3O)cc2OC)cc1O
[7]
  Activity: 0.03 mM/min
[8]
  inhibition: 93%
[9]
  Activity: Toxic
[10]
  inhibition: Active
[11]
  Flu intensity: 6.45 a.u.
[1]
  Activity: 64.63 nmol
[12]
  mortality at 24 h, 5 ug/ml: 0%
[13]
  Activity: Toxic
[14]
  Activity: 70.33%
[15]
  Activity: Toxic
[16]
  mortality at 24 h, 100 ug/ml: 53.3%
[17]
  Activity: 0 U
[18]
  inhibition: Active
[19]
  Activity: 0 U
[20]
  Flu intensity: 19.8 a.u.
[21]
  Activity: Toxic
[22]
  LC50: 100 µg/mL (≈ 160 µM)
[23]
  inhibition: > 80%
[24]
  mortality at 24 h, 75 ug/ml: 36.6%
[25]
  Activity: Non-Toxic
[26]
  Flu intensity: 11.8 a.u.
[27]
  Activity: 0.07 mM/min
[28]
  viability at 24 h, 100 ug/ml: 99.6%
[29]
  Activity: 0 U
[30]
  inhibition: Active
[4]
  Activity: 81.66%
[31]
  Activity: 0 U
[32]
  inhibition: 68.4%
[33]
  mortality at 24 h, 25 ug/ml: 0%
[34]
  Activity: 33.9 nmol/mg
[35]
  inhibition: Active
[36]
  Activity: Active
[37]
  Activity: Active
[38]
  Activity: 77.84 nmol
[5]
  Ratio: 0.51
[39]
  mortality at 24 h, 50 ug/ml: 3.33%
[6]
  Activity: 27.9 nmol/mg
[40]
  Flu intensity: 10 a.u.
